Reference: ChEMBL document CHEMBL1135309, “Tryptophanyl phosphoramidates as prodrugs of synadenol and its E-isomer: synthesis and biological activity” (2002)

What was measured:
[1] = Antitumor activity against normal cells (fibroblasts) at 500 ug/disk in disk diffusion assay; Value ranges from 0-100; format: functional
HCT-15 [2] = assay: Antitumor activity against human HCT15 to multiple drug-resistant human colon tumor at 500 ug/disk in disk diffusion assay; Value ranges from 300-400; format: functional
[3] = Antiviral activity against HBV in 2.2.15 cells in HBV-DNA inhibition assay
[4] = Ratio of antiviral activity of VZV to the ratio of cytotoxicity of HFF (EC50/CC50) against cytopathic effect inhibition assay; 5.0/111; format: functional
[5] = Antiviral activity against HCMV (AD 169) in HFF cells assessed by cytopathic effect inhibition assay; 5.2/90
[6] = Ratio of antiviral activity of HSV-2 to the ratio of cytotoxicity of Vero (EC50/CC50) against cytopathic effect inhibition assay in CEM cells; 40/91; format: functional
[7] = Ratio of antiviral activity of HSV-2 to the ratio of cytotoxicity of HFF (EC50/CC50) against cytopathic effect inhibition assay; >184/>184; format: functional
[8] = Antiviral activity of HCMV (Towne)in HFF cells by plaque reduction assay
L1210 = assay: Antitumor activity against leukemia L1210 at 500 ug/disk in disk diffusion assay; format: functional, Mus musculus
[9] = Ratio of antiviral activity of HIV-1to the ratio of cytotoxicity of MT-2 (EC50/CC50) against cytopathic effect inhibition assay; 1/10; format: functional
[10] = Ratio of antiviral activity of HSV-1 to the ratio of cytotoxicity of HFF (EC50/CC50) against cytopathic effect inhibition assay; >184/>184; format: functional
[11] = Ratio of antiviral activity of HSV-1 to the ratio of cytotoxicity of Vero (EC50/CC50) against cytopathic effect inhibition assay in CEM cells; 31/91; format: functional
[12] = Ratio of antiviral activity of HSV-1 to the ratio of cytotoxicity of BSC-1 (EC50/CC50) against KB cells; 15/>100; format: functional
[13] = Antiviral activity against EBV in Daudi cells against viral capsid antigen immunofluorescence assay (VCA-IF)
[14] = Ratio of antiviral activity of HSV-2 to the ratio of cytotoxicity of HFF (EC50/CC50) against cytopathic effect inhibition assay; 80/433; format: functional
[15] = Ratio of antiviral activity of VZV to the ratio of cytotoxicity of HFF (EC50/CC50) against cytopathic effect inhibition assay; 2.5/368; format: functional
[16] = Ratio of antiviral activity of HSV-2 to the ratio of cytotoxicity of Vero (EC50/CC50) against cytopathic effect inhibition assay in CEM cells; 59/>100; format: functional
[17] = Antiviral activity against HCMV (Towne) in HFF cells by plaque reduction assay
[18] = Ratio of antiviral activity of HSV-1 to the ratio of cytotoxicity of Vero (EC50/CC50) against cytopathic effect inhibition assay in CEM cells; 28/>100; format: functional
[19] = Ratio of antiviral activity of HSV-1 to the ratio of cytotoxicity of BSC-1 (EC50/CC50) against KB cells; 26/78; format: functional
[20] = Antiviral activity against EBV in Daudi cells (EC50) against viral capsid antigen immunofluorescence assay (VCA-IF); 3.2/368
[21] = Antiviral activity against HIV-1 in MT-2 cells (EC50) against cytopathic effect inhibition assay; 0.75/32
[22] = Antiviral activity against HBV in 2.2.15 cells (EC50) in HBV-DNA inhibition assay against CEM cells; 2/>100
[23] = Antiviral activity against HCMV (AD 169) in HFF cells against cytopathic effect inhibition assay; 1.0/303
[24] = Ratio of antiviral activity of HSV-1 to the ratio of cytotoxicity of HFF (EC50/CC50) against cytopathic effect inhibition assay; >92/433; format: functional
[25] = Ratio of antiviral activity of HSV-1 to the ratio of cytotoxicity of HFF (EC50/CC50) against cytopathic effect inhibition assay; <0.07/18; format: functional
[26] = Ratio of antiviral activity of VZV to the ratio of cytotoxicity of HFF (EC50/CC50) against cytopathic effect inhibition assay; 7.6/101; format: functional
[27] = Ratio of antiviral activity of HSV-1 to the ratio of cytotoxicity of Vero (EC50/CC50) against cytopathic effect inhibition assay in CEM cells; >1/<10; format: functional
[28] = Antiviral activity against HCMV (Towne) in HFF cells by plaque reduction assay; remark: listed apart in the source
[29] = Antiviral activity against HIV-1 in MT-2 cells (EC50) against cytopathic effect inhibition assay; 0.003/0.24
[30] = Ratio of antiviral activity of HBV to the ratio of cytotoxicity of 2.2.15 (EC50/CC50) in HBV-DNA inhibition assay against CEM cells; 0.01/0.3; format: functional, CCRF-CEM
[31] = Antiviral activity against EBV in Daudi cells (EC50) against viral capsid antigen immunofluorescence assay (VCA-IF); 1.0/>108
[32] = Ratio of antiviral activity of HSV-2 to the ratio of cytotoxicity of HFF (EC50/CC50) against cytopathic effect inhibition assay; 1.1/18; format: functional
[33] = Antiviral activity against HCMV (AD 169) in HFF cells (EC50) against cytopathic effect inhibition assay
[34] = Ratio of antiviral activity of HSV-1 to the ratio of cytotoxicity of BSC-1 (EC50/CC50) against KB cells; 2.5/0.5; format: functional
HCT-15 [35] = assay: Antitumor activity against human HCT15 to multiple drug-resistant human colon tumor at 500 ug/disk in disk diffusion assay; format: functional

Work on `COC(=O)C(Cc1c[nH]c2ccccc12)NP(=O)(O)OCC1C/C1=C/n1cnc2c(N)ncnc21` (stereo unspecified) yielded an Activity [1] of 0 zone units, an Activity (HCT-15 [2]) of 300 zone units and an EC50 [3] of 490 nM. It also gave a Ratio [4] of 5, an EC50 [5] of 5200 nM and a Ratio [6] of 40. The Ratio [7] was greater than 184, the EC50 [8] was 1500 nM and the Activity (L1210) was 0 zone units. The Ratio [9] was 1, the Ratio [10] was greater than 184 and the Ratio [11] was 31. It also gave a Ratio [12] of 15 and an EC50 [13] greater than 18000 nM.
In the case of `Nc1ncnc2c1ncn2/C=C1/CC1CO` (stereo unspecified), the Ratio [14] is reported as 80, the Ratio [15] is reported as 2.5 and the Ratio [16] is reported as 59. The EC50 [17] was 2100 nM, the Ratio [18] was 28 and the Ratio [19] was 26. The EC50 [20] was 3200 nM, the EC50 [21] was 750 nM and the EC50 [22] was 2000 nM. For the same molecule, the EC50 [23] was 1000 nM and the Ratio [24] was greater than 92.
`COC(=O)C(C)NP(=O)(OCC1C/C1=C/n1cnc2c(N)ncnc21)Oc1ccccc1` (stereo unspecified) showed a Ratio [25] of less than 0.07, a Ratio [26] of 7.6 and a Ratio [27] greater than 1. The EC50 [28] was 140 nM, the EC50 [29] was 3 nM and the Ratio [30] was 0.01. The EC50 [31] was 1000 nM, the Ratio [32] was 1.1 and the EC50 [33] was 1300 nM. It also gave a Ratio [34] of 2.5 and an Activity (HCT-15 [35]) of 200 ug disk-1.
